Test results reported in patent publication US11596622B2, “Mazindol treatment for heroin dependence and substance use disorder” (NLS Pharmaceutics AG, priority 2017, dated 2023).

Columns and labels:
5-HT transporter(h) = molecular target: T1, 5-HT transporter(h) (Homo sapiens, UniProt P31645); test: Radioligand binding, 5-HT transporter (Eurofins CEREP); conditions: 1.0 × 10^−05 M; antagonist radioligand; read-out: percent inhibition of the binding of a radioactively labeled ligand
T1 construct: Eurofins CEREP
Excerpt: (§1) Table A discloses mazindol and Met tested at […] and the compound binding calculated as a percent inhibition of the binding of a radioactively labeled ligand specific for each target (Eurofins CEREP, France).
(§2) An inhibition or stimulation of more than 50% is considered a significant effect of the test compounds. Fifty percent is a common cut-off for further investigation (i.e. determination of IC50 or EC50 values from concentration-response curves).
(§3) The results are expressed as a percent of control specific binding obtained in the presence of the test compounds:
(§4) [formula] and as a percent inhibition of control specific binding obtained in the presence of the test compounds: […]

k (KOP) = molecular target: T2, k (KOP) (Rattus norvegicus, UniProt P34975); test: Radioligand binding, κ opioid receptor (Eurofins CEREP)
T2 construct: Eurofins CEREP
Excerpt: as §1
An inhibition or stimulation of more than 50% is considered a significant effect of the test compounds. Fifty percent is a common cut-off for further investigation (i.e. determination of IC50 or EC50 values from concentration-response curves). Tables B and C display the binding profiles for Mazindol and Met.
as §3, §4

Dopamine transporter(h) = molecular target: T3, Dopamine transporter(h) (Homo sapiens, UniProt Q01959); test: Radioligand binding, dopamine transporter (Eurofins CEREP); conditions: 1.0 × 10^−05 M; antagonist radioligand; read-out: percent inhibition of the binding of a radioactively labeled ligand
T3 construct: Eurofins CEREP
Excerpt: as §1, §2, §3, §4

C57BL/6J mice = test: Effect of treatment on the conditioned place preference induced by heroin; type: in vivo; conditions: for Distance travelled in the drug-paired compartment / Distance travelled in the two compartments (Drug + Vehicle) / Distance travelled in the vehicle-paired compartment / Distance travelled, drug-paired minus vehicle-paired compartment / Time spent in the drug-paired compartment / Time spent in the vehicle-paired compartment / Time spent, drug-paired minus vehicle-paired compartment: mean
Excerpt: Conditioned place preference (CPP) is a widely used procedure for studying the potential addictive effect of drugs. CPP is based upon the tendency of rodents to approach a stimulus that has previously been paired with an incentive state induced by a drug. A drug that induces a CPP may be suspected to present reinforcing effects that could lead to addiction. Numerous addictive drugs, such as opiate agonists or stimulants induce a CPP and a behavioral sensitization.
The effect of mazindol on place preference was examined in C57BL/6J mice using a method similar to the one used by Schlussman et al. (9).
The third experiments consisted in examining the effects of mazindol and D-amphetamine (at doses chosen from results of the first part of the study) on the place preference induced by heroin at a dose chosen from results of the second experiment, which was 1.25 mg/kg. Mazindol (0.125, 0.25 and 0.5 mg/kg) and D-amphetamine (0.5 mg/kg) were tested.
Therefore, it was decided to perform an additional experiment to examine the effects on place preference induced by heroin of mazindol at 1 and 2 mg/kg and of D-amphetamine at 1 mg/kg.
Following the habituation session (on day 1), animals (N=72) were pseudo-randomly assigned to two groups, a Control group (N=12) and a Heroin group (N=60), in a way that there was no significant difference between the two groups for the total distance travelled in the apparatus and for the percentage of time spent and the percentage distance travelled in the grey compartment and in the striped compartment.
Animals received the following treatments immediately before drug sessions: • Control group: vehicle • Heroin group: heroin (1.25 mg/kg)
Following the last conditioning session, the Heroin group was pseudo-randomly divided into 5 groups (N=12/group) in a way that there was no significant difference between groups for the total distance travelled in the apparatus and for the percentage of time spent and the percentage distance travelled in the grey compartment and in the striped compartment in habituation session, for the distance travelled in the drug-paired and in the vehicle-paired compartments in conditioning sessions and for the proportion of striped drug-paired compartments.
Animals received the following treatments before preference session: • Control group: vehicle of mazindol, i.p. 60 min before testing. • Hero group: vehicle of mazindol, i.p. 60 min before testing. • Hero-A 0.5 group: D-amphetamine (0.5 mg/kg), i.p. 30 min before testing. • Hero-Mz 0.125 group: mazindol (0.125 mg/kg), i.p. 60 min before testing. • Hero-Mz 0.25 group: mazindol (0.25 mg/kg), i.p. 60 min before testing. • Hero-Mz 0.5 group: mazindol (0.5 mg/kg), i.p. 60 min before testing.
Following the habituation session (on day 1), animals (N=72) were pseudo-randomly assigned to three groups, a Control group (N=12), a Heroin group (N=48) and a Mazindol group (N=12), in a way that there was no significant difference between the three groups for the total distance travelled in the apparatus and for the percentage of time spent and the percentage distance travelled in the grey compartment and in the striped compartment.
Animals received the following treatments before drug sessions: • Control group: vehicle, i.p. immediately before session. • Heroin group: heroin (1.25 mg/kg), i.p. immediately before session. • MAZ 2 group: mazindol (2 mg/kg), i.p. 60 min before session.
Following the last conditioning session, the Heroin group was pseudo-randomly divided into 4 groups (N=12/group) in a way that there is no significant difference between groups for the total distance travelled in the apparatus and for the percentage of time spent and the percentage distance travelled in the grey compartment and in the striped compartment in habituation session, for the distance travelled in the drug-paired and in the vehicle-paired compartments in conditioning sessions and for the proportion of striped drug-paired compartments. […]

[1] = Hero-Mz 0.125: heroin 1.25 mg/kg conditioning, mazindol 0.125 mg/kg i.p. 60 min before preference session
[2] = Hero-Mz 0.25: heroin 1.25 mg/kg conditioning, mazindol 0.25 mg/kg i.p. 60 min before preference session
[3] = Hero-Mz 0.5: heroin 1.25 mg/kg conditioning, mazindol 0.5 mg/kg i.p. 60 min before preference session
[4] = Hero-Mz 1: heroin 1.25 mg/kg conditioning, mazindol 1 mg/kg i.p. 60 min before preference session
[5] = Hero-Mz 2: heroin 1.25 mg/kg conditioning, mazindol 2 mg/kg i.p. 60 min before preference session

T3 sequence (Q01959 whole entry): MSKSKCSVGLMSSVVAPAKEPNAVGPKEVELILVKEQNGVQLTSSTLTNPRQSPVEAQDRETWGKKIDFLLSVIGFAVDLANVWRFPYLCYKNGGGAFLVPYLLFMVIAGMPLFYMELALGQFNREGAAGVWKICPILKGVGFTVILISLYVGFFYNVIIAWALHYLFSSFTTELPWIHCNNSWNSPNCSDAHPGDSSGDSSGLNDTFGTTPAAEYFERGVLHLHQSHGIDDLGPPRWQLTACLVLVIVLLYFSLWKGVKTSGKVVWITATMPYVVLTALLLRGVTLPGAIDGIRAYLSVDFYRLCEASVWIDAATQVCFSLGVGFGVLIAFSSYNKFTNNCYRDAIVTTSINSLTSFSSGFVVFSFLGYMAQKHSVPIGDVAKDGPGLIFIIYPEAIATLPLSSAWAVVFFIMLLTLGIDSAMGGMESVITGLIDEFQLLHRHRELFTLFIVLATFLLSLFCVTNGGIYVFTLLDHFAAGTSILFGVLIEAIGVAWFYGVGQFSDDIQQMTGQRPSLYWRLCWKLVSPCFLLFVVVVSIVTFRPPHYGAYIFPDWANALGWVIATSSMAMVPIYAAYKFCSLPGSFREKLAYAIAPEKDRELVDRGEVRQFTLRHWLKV
T2 sequence (P34975 whole entry): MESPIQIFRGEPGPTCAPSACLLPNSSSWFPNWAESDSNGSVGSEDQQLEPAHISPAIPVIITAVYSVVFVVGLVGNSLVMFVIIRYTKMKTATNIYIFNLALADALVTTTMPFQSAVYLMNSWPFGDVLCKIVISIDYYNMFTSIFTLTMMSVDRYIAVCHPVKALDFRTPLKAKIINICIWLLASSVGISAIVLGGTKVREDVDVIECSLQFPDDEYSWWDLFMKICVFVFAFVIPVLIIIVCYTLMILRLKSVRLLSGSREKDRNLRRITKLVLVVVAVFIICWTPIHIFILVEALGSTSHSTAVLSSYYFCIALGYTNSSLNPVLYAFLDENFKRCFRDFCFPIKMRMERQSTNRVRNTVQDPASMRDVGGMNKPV
T1 sequence (P31645 whole entry): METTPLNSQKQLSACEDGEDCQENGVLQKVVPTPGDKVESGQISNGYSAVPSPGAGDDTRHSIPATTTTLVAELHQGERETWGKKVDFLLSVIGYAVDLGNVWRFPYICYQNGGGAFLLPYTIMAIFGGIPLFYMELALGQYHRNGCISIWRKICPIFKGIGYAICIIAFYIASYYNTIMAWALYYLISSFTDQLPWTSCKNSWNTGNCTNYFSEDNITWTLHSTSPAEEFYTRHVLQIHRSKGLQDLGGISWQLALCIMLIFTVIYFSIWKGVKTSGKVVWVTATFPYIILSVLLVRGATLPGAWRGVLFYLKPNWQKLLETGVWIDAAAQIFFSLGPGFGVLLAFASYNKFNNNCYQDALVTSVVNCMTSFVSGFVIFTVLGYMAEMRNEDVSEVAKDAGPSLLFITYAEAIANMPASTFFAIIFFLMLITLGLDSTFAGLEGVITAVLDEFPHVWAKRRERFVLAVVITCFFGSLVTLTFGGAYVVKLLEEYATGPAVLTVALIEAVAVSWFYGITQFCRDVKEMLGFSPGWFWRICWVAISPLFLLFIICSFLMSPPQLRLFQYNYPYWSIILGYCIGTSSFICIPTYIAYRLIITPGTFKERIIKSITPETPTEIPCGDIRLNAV

## OC1(c2ccc(Cl)cc2)c2ccccc2C2=NCCN21 (stereo not shown) [Mazindol, 5-(4-chlorophenyl)-2,5-dihydro-3 H-imadazo[2,1-a]isoindol-5-ol]
5-HT transporter(h)
  inhibition at 10 µM: 99.5%
K (KOP)
  affinity for κ-opioid receptors: modest affinity
Dopamine transporter(h)
  inhibition at 10 µM: 98.2%
C57BL/6J mice; [1]
  Distance travelled in the drug-paired compartment: 5623.8 cm
  Distance travelled in the two compartments (Drug + Vehicle): 9800.4 cm
  Distance travelled in the vehicle-paired compartment: 4176.5 cm
  Distance travelled, drug-paired minus vehicle-paired compartment: 1447.3 cm
  Time spent in the drug-paired compartment: 1105.7 s
  Time spent in the vehicle-paired compartment: 694.3 s
  Time spent, drug-paired minus vehicle-paired compartment: 411.3 s
C57BL/6J mice; [2]
  Distance travelled in the drug-paired compartment: 5092.1 cm
  Distance travelled in the two compartments (Drug + Vehicle): 9390.5 cm
  Distance travelled in the vehicle-paired compartment: 4298.4 cm
  Distance travelled, drug-paired minus vehicle-paired compartment: 793.8 cm
  Time spent in the drug-paired compartment: 933.9 s
  Time spent in the vehicle-paired compartment: 866.1 s
  Time spent, drug-paired minus vehicle-paired compartment: 67.8 s
C57BL/6J mice; [3]
  Distance travelled in the drug-paired compartment: 4411.7 cm
  Distance travelled in the two compartments (Drug + Vehicle): 8164.5 cm
  Distance travelled in the vehicle-paired compartment: 3752.8 cm
  Distance travelled, drug-paired minus vehicle-paired compartment: 659.0 cm
  Time spent in the drug-paired compartment: 965.1 s
  Time spent in the vehicle-paired compartment: 834.9 s
  Time spent, drug-paired minus vehicle-paired compartment: 130.1 s
C57BL/6J mice; [4]
  Distance travelled in the drug-paired compartment: 5464.5 cm
  Distance travelled in the two compartments (Drug + Vehicle): 9746.4 cm
  Distance travelled in the vehicle-paired compartment: 4281.9 cm
  Distance travelled, drug-paired minus vehicle-paired compartment: 1182.6 cm
  Time spent in the drug-paired compartment: 1086.0 s
  Time spent in the vehicle-paired compartment: 714.0 s
  Time spent, drug-paired minus vehicle-paired compartment: 372.0 s
C57BL/6J mice; [5]
  Distance travelled in the drug-paired compartment: 7038.9 cm
  Distance travelled in the two compartments (Drug + Vehicle): 12086.8 cm
  Distance travelled in the vehicle-paired compartment: 5047.9 cm
  Distance travelled, drug-paired minus vehicle-paired compartment: 1990.9 cm
  Time spent in the drug-paired compartment: 1089.7 s
  Time spent in the vehicle-paired compartment: 710.3 s
  Time spent, drug-paired minus vehicle-paired compartment: 379.3 s
C57BL/6J mice; mazindol 0.125 mg
  effect on the heroin-induced increases of distance travelled and of time spent in the drug-paired compartment: had no significant effect
C57BL/6J mice; mazindol 0.25 mg/kg
  effect on the heroin-induced increase of time spent in the drug-paired compartment: Tended to reduce
C57BL/6J mice; mazindol 0.25 mg/kg, effect partial
  effect on the heroin-induced increase of the difference of distance travelled in the drug-paired vs. vehicle-paired compartment: Significantly reduced
C57BL/6J mice; mazindol 0.5 mg/kg
  effect on the heroin-induced increase of the difference of distance travelled in the drug-paired vs. vehicle-paired compartment: Significantly antagonized
  effect on the heroin-induced increase of time spent in the drug-paired compartment: Tended to reduce
C57BL/6J mice; mazindol 1 mg/kg
  effect on the heroin-induced increase of the difference of distance travelled in the drug-paired vs. vehicle-paired compartment: Did not significantly reduce
  effect on the heroin-induced increase of time spent in the drug-paired compartment: Did not significantly modify
C57BL/6J mice; mazindol 2 mg
  effect on the heroin-induced increases of distance travelled and of time spent in the drug-paired compartment: had no significant effect
C57BL/6J mice; mazindol 0.125, 1 and 2 mg/kg i.p. before preference session
  effect on the place preference induced by heroin: did not induce effects suggesting a decrease of the place preference induced by heroin
C57BL/6J mice; mazindol 0.125-2 mg/kg i.p. before preference session
  locomotor activity (total distance travelled, FIG. 3): decreased locomotor activity at all doses tested except 2 mg/kg
C57BL/6J mice; mazindol 0.25, 0.5 mg/kg i.p. before preference session
  effect on the place preference induced by heroin: decreased the place preference induced by heroin
